From paper PMC10096842, “Identification of Flavone Derivative Displaying a 4′-Aminophenoxy Moiety as Potential Selective Anticancer Agent in NSCLC Tumor Cells” (Molecules, 2023)
Blank lines part the entries; values can stand above or below the molecule they belong to.

How the values were obtained:
[1] = LogP determination (1-octanol/PBS partition, UV-vis); type: physicochemical; details: for logP: 1-octanol/PBS, pH 7.4, 1-octanol/PBS pH 7.4, read-out: Experimental LogP
Experimental: LogP was determined as previously described. Briefly, solutions of each APF were prepared in 1-octanol, and UV-vis spectra were acquired to determine the λmax. After having placed 2.5 mL of each solution in 10 mL conical centrifuge tubes, PBS was added (2.5 mL, pH 7.4) and the biphasic system was mixed using a vortex mixer (VELP Scientifica, Usmate Velate MB, Italy) followed by centrifugation (2000× g, 5 min). Then, the octanol phase absorption was measured at λmax. The partition coefficient Ko/w was calculated according to the following equation:Ko/w = [APF]oct/[APF]PBS = […] where Ai is the initial measured absorbance in octanol, pre-extraction, and Af is the final measured absorbance in octanol, post-extraction.

[2] = system: human dermal fibroblasts (HDF); assay: MTT cell viability assay, HDF; type: cell-based; details: Fibroblast, 72 h
Experimental: (§1) The human non-small cell lung cancer (NSCLC) and Human Dermal Fibroblasts (HDF) cell lines were all obtained from the American Type Culture Collection (ATCC). The H1975 (CRL-5908™) cell line was grown in RPMI 1640 medium (ECB2000) while the A549 (CCL-185™) and HDF were grown in complete DMEM medium (ECM0095) All cultures were supplemented with 10% fetal bovine serum (FBS), 2 mM L-glutamine, 100 U/mL penicillin, and 100 µg/mL streptomycin,. All cell lines were routinely maintained in 75 cm^2 flasks in a cell incubator at 37 °C, 5% CO2, and 95% relative humidity. The cell cultures were detached by trypsinization with 0.5% trypsin in PBS containing 0.025% EDTA. All cell culture reagents were supplied by Euroclone (Milan, Italy).
(§2) The number of metabolically active cells, and thus cell viability, was assessed by a 3-(4,5-dimethylthiazol-2-yl)-2,5-diphenyltetrazolium bromide (MTT) assay as previously described. The NSCLC cell lines (A549 and H1975) and HDF were seeded in 96-well plates to reach 50% confluence at 24 h; then, the medium was removed and replaced with 0.2 mL of fresh culture medium containing increasing compound concentrations (0–160 µM). After 72 h, the medium from each well was removed and replaced with fresh medium supplemented with MTT at a final concentration of 200 µg/mL. After incubation for 4 h at 37 °C, 0.2 mL of DMSO was added to each well followed by multiwell shaking for 4 min. The absorbance was read on a multiwell scanning microplate reader (BioTek Synergy HT MicroPlate Reader Spectrophotometer, BioTek Instruments Inc., Winooski, VT, USA) at 570 nm using the extraction buffer as a blank. The optical density in the control group (untreated cells) was considered as 100% viability. The relative cell viability (%) was calculated as (OD570 of treated samples/OD570 of untreated samples) × 100. Dose-dependent curves were therefore generated for the cytotoxic studies. The 50% inhibiting concentration (IC50) was determined by non-linear regression analysis with a three-parameter fit by utilizing SigmaPlot 12.0 Software, USA, Systat Software, Inc. SigmaPlot for Windows. Each experiment was performed at least five times in triplicate.

[3] = system: A549 NSCLC cells; assay: MTT cell viability assay, A549; type: cell-based, human; details: for IC50: A549, 72 h, MTT; for SI (Selectivity Index): IC50 HDF / IC50 A549
Experimental: as §1, §2

[4] = system: H1975 NSCLC cells; assay: MTT cell viability assay, H1975; type: cell-based, human; details: for IC50: H1975, 72 h, MTT; for SI (Selectivity Index): IC50 HDF / IC50 H1975
Experimental: as §1, §2

[5] = system: H1975 cells; assay: Annexin V-FITC/PI apoptosis flow cytometry, H1975; type: cell-based, human
Experimental: (§3) Apoptosis was analyzed by flow cytometry using an Annexin V-FITC apoptosis detection kit (Biolegend, San Diego, CA, USA), according to the manufacturer’s instructions. A549, H1975, and HDF cells were treated with […] concentrations of APF-1 (1.5 and 3 µM). […] Briefly, control and treated cells were trypsinized, washed twice with ice-cold PBS, and resuspended in 1X Annexin binding buffer at a final concentration of 1.0 × 10^6 cell/mL. A total of 5 µL Annexin V-FITC and 10 µL Propidium Iodide (PI) were added to the cell suspension and the mixture was incubated for 15 min at rt in the dark. Samples were analyzed using the Guava EasyCyte flow cytometer (Merk-Millipore, Louis Missouri, USA). A total of 5000 events were acquired for each sample. Annexin V-FITC was detected as a green fluorescence (λex = 488 nm; λem = 516 nm) and PI was detected as a red fluorescence (λex = 535 nm; λem = 617 nm). Early apoptosis is defined by Annexin V+/PI− staining, late apoptosis is defined by Annexin V+/PI+ staining, and necrosis is defined by Annexin V−/PI+ staining.

[6] = system: A549 cells; assay: Annexin V-FITC/PI apoptosis flow cytometry, A549; type: cell-based, human
Experimental: as §3

[7] = Annexin V-FITC/PI apoptosis flow cytometry, HDF; type: cell-based, human; details: human, HDF cells, HDF, 24 h, read-out: live/viable (Annexin V−PI−) cells
Experimental: as §3

[8] = system: HDF cells; assay: Annexin V-FITC/PI apoptosis flow cytometry, HDF; type: cell-based, human
Experimental: as §3

[9] = system: H1975 cells; assay: Cell cycle analysis (PI, flow cytometry), H1975; type: cell-based, human; details: H1975, 3 µM, 24 h
Experimental: (§4) Cell cycle analyses were performed by using a Guava easyCyte flow cytometer (Merk-Millipore, MA, USA) and the DNA content was determined by propidium iodide (PI) method as previously described. Briefly, A549, H1975, and HDF were treated with APF-1 at 1.5 and 3 µM concentrations for 24 h. Cells were harvested, washed twice with cold PBS, and fixed with 70% ice-cold ethanol and kept at […] for 2 h. The fixed cells were centrifugated at 4 °C and suspended in a master mix solution containing PBS, PI (40 µg/mL), and RNase (100 µg/mL) for 30 min at 37 °C in the dark. Samples were run through the Guava easyCyte flow cytometer set to internal cell cycle analysis protocol and 5000 cells per sample were measured. The percentage of cell cycle phases (G0/G1, S, and G2/M) was quantified using MultiCycle AV Cell Cycle in FCS Express 7 software (DeNovo Software, Pasadena, CA, USA). The experiment was performed three times in triplicate.

[10] = system: A549 cells; assay: Cell cycle analysis (PI, flow cytometry), A549; type: cell-based, human; details: 24 h
Experimental: as §4

[11] = system: HDF cells; assay: Cell cycle analysis (PI, flow cytometry), HDF; type: cell-based, human; details: 1.5 and 3 µM, 24 h
Experimental: as §4

[12] = system: p21^waf1/cip1 protein level in A549 cells; assay: Western blot of p21 expression, A549; type: cell-based, human; details: A549, higher APF-1 concentration (3 µM), 24 h
Experimental: (§5) Analysis of cell extracts (20 µg total proteins) was performed using SDS-PAGE 12% (Bio-Rad Laboratories, Hercules, CA, USA). Electrophoresis was carried out under reducing conditions, where uniformly negatively charged proteins move according to their mass. The proteins were then transferred to a PVDF membrane using the Trans-Blot Turbo instrument (Bio-Rad Laboratories, USA), after which the membrane was blocked with Every Blot Blocking Buffer (Bio-Rad Laboratories, USA). P21 protein levels were analyzed by Western blotting using a specific rabbit monoclonal primary antibody that specifically recognizes p21 protein (ab109199, Cambridge, MA, USA), and a secondary antibody anti-rabbit HRP (TA130023, OriGene Technologies, Rockville, MD 20850, USA) and detected by chemiluminescence using the Chemidoc device (Bio-Rad Laboratories, USA). […] GADPH protein levels were analyzed by Western blotting using a specific rabbit monoclonal primary antibody that specifically recognizes this protein (ARC0205, catalog number MA535235, Thermo Scientific, Waltham, MA, USA) and secondary antibody anti-rabbit HRP (TA130023, OriGene Technologies, Rockville, MD 20850, USA), also in this case detected by chemiluminescence with the Chemidoc instrument (Bio-Rad Laboratories, USA).

[13] = system: p21^waf1/cip1 protein level in H1975 cells; assay: Western blot of p21 expression, H1975; type: cell-based, human; details: 24 h
Experimental: as §5

[14] = system: p21 expression in HDF cell line; assay: Western blot of p21 expression, HDF; type: cell-based, human; details: APF-1 treatment, 24 h
Experimental: as §5

[15] = system: advanced NSCLC; design: method as in PMID 12177774, PMID 17912235, PMID 36674503; details: treatment of advanced NSCLC; cited from earlier work

Compound: Nc1ccc(Oc2ccc3oc(-c4cccc(Oc5ccccc5)c4)cc(=O)c3c2)cc1 [APF-1]
logP [1]: 3.2 ± 0.1 | IC50 [2]: 62 ± 6 µM | IC50 [3]: 4.2 ± 0.4 µM | IC50 ([3]; Homo sapiens): 4 µM | SI (Selectivity Index) [3]: 16 | SI increase compared with doxorubicin ([4]; H1975): ~ 4.5 fold | IC50 [4]: 2.3 ± 0.2 µM | IC50 ([4]; Homo sapiens, NCI-H1975, 72 h): 2 µM | early apoptotic (Annexin V+PI−) cells ([5]; H1975, 1.5 µM, 24 h): 16% | late apoptotic (Annexin V+PI+) cells ([5]; H1975, 1.5 µM, 24 h): 11% | increase of early apoptosis compared to untreated cells ([5]; H1975, 3 µM, 24 h): 2.6 fold | increase of late apoptosis compared to untreated cells ([5]; H1975, 3 µM, 24 h): 6.5 fold | viability at 1.5 µM ([5]; Homo sapiens, NCI-H1975, 24 h, H1975, 1.5 µM, 24 h, read-out: live/viable (Annexin V−PI−) cells): 70.9% | viability at 3 µM ([5]; Homo sapiens, NCI-H1975, 24 h, H1975, 3 µM, 24 h, read-out: live/viable (Annexin V−PI−) cells): 46% | induction of apoptosis (sum of early and late apoptosis) with respect to untreated cells ([5]; cancer cells (H1975), Figure 3D): about 4 times | increase in early apoptosis with respect to untreated cells ([6]; A549, 3 µM, 24 h): 2 fold | viability at 1.5 µM ([6]; Homo sapiens, A549, 24 h, A549, 1.5 µM, 24 h, read-out: live/viable (Annexin V−PI−) cells): 86% | viability at 3 µM ([6]; Homo sapiens, A549, 24 h, A549, 3 µM, 24 h, read-out: live/viable (Annexin V−PI−) cells): 73% | induction of apoptosis (sum of early and late apoptosis) with respect to untreated cells ([6]; cancer cells (A549), Figure 3D): about 4 times | viability at 24 h, 1.5 µM ([7]; 1.5 µM): 92% | viability at 24 h, 3 µM ([7]; 3 µM): 86% | effect on the number of late apoptotic cells ([8]; HDF, 1.5 and 3 µM, 24 h): did not detect any effect | increase in early apoptosis ([8]; HDF, highest APF-1 concentration (3 µM), 24 h): 4.7 fold | induction of apoptosis (sum of early and late apoptosis) compared with cancer cells ([8]; fibroblasts, Figure 3D): lower | cells in G0/G1 phase [9]: 24% | cells in G2/M phase [9]: 70% | cells in S phase [9]: 5.6% | increase in G2/M phase population compared to untreated cells [9]: 2 fold | increase in G2/M phase compared to the untreated cells ([10]; A549, 1.5 µM): 2.8 fold | cells in G2/M phase ([10]; A549, 3 µM): 75% | effect on cell cycle profile [11]: not affected | increase in p21^waf1/cip1 expression with respect to untreated cells [12]: 1.5 fold | increase in p21 level with respect to untreated cells ([13]; H1975, 1.5 µM): 3 fold | increase in p21 level with respect to untreated cells ([13]; H1975, 3 µM): 3 fold | change in p21 expression [14]: did not observe any significant change

Compound: Nc1ccc(Oc2ccc3c(=O)cc(-c4cccc(Oc5ccccc5)c4)oc3c2)cc1 [APF-3, 7-(4-aminophenoxy)-2-(3′-phenoxy)phenyl-4H-chromen-4-one]
logP [1]: 3.3 ± 0.2 | IC50 [2]: 80 ± 3 µM | IC50 ([3]; Homo sapiens): 33 ± 2 µM | SI (Selectivity Index) [3]: 2 | IC50 ([4]; Homo sapiens, NCI-H1975, 72 h): 40 ± 4 µM | SI (Selectivity Index) [4]: 2

Compound: Nc1ccc(Oc2ccc3oc(-c4ccccc4)cc(=O)c3c2)cc1 [APF-2, 6-(4-aminophenoxy)-2-(phenyl)-4H-chromen-4-one]
Experimental LogP ([1]; 1-octanol/PBS pH 7.4): 2.1 ± 0.3 | logP [1]: 2.3 | IC50 [2]: > 160 µM | IC50 ([3]; Homo sapiens): 22 ± 3 µM | SI (Selectivity Index) [3]: >8 | IC50 ([4]; Homo sapiens, NCI-H1975, 72 h): 50 ± 5 µM | SI (Selectivity Index) [4]: >3

More lines, main results first:

logP [1]: 3.2 ± 0.3 | IC50 ([3]; Homo sapiens): 7 ± 3 µM | IC50 ([4]; Homo sapiens, NCI-H1975, 72 h): 10 ± 5 µM
Compound: Nc1ccc(Oc2ccc3oc(-c4ccc(Oc5ccccc5)cc4)cc(=O)c3c2)cc1 [APF-5, 6-(4-aminophenoxy)-2-(4′-phenoxy)phenyl-4H-chromen-4-one]
IC50 [2]: 55 ± 2 µM | SI (Selectivity Index) [3]: 7 | SI (Selectivity Index) [4]: 5.5

IC50 ([3]; Homo sapiens): 0.8 ± 0.2 µM | IC50 ([4]; Homo sapiens, NCI-H1975, 72 h): 2.5 ± 0.4 µM
Compound: COc1cccc2c1C(=O)c1c(O)c3c(c(O)c1C2=O)C[C@@](O)(C(=O)CO)C[C@@H]3O[C@H]1C[C@H](N)[C@H](O)[C@H](C)O1 [Doxorubicin, reference compound]
IC50 [2]: 14 ± 4 µM | SI (Selectivity Index) [3]: 18 | SI (Selectivity Index) [4]: 6 | overall response rate [15]: 30–50%

logP [1]: 2.9 ± 0.2 | IC50 ([3]; Homo sapiens): 32 ± 5 µM | IC50 ([4]; Homo sapiens, NCI-H1975, 72 h): > 160 µM
Compound: Nc1ccc(Oc2cccc3oc(-c4cccc(Oc5ccccc5)c4)cc(=O)c23)cc1 [APF-4, 5-(4-aminophenoxy)-2-(3′-phenoxy)phenyl-4H-chromen-4-one]
IC50 [2]: > 160 µM | SI (Selectivity Index) [3]: >5
